Drawing on patent publication US20260297081A1, “COMPOUNDS AND METHODS OF TREATING CANCERS” (Cullgen Inc., priority 2023, published 2026), this text covers inhibition for 15 molecules.

For the assay, the target named is CDK4 (Homo sapiens, UniProt P11802+Q16531). Kind of assay: CDK4 percentage degradation in Calu-1 cells (Table 6). On the set-up: Cells that express cyclin D1-3 and CDK4/6 proteins were treated with heterobifunctional compounds; endogenous in cells; host or cells: Calu-1. Particulars: 16 hours; for inhibition at 0.04 µM: 40 nM; for inhibition at 0.2 µM: 200 nM. The assay is classed as cell-based. Summed up:
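Calu-1 cells exposed to heterobifunctional compounds at 40 nM or 200 nM for 16 h. Cyclin D1 and CDK4 levels measured by Western blot of RIPA lysates (BCA-normalised loading), bands quantified by densitometry and expressed as percentage degradation.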

Chain of CDK4 (P11802 2-303 limits assumed): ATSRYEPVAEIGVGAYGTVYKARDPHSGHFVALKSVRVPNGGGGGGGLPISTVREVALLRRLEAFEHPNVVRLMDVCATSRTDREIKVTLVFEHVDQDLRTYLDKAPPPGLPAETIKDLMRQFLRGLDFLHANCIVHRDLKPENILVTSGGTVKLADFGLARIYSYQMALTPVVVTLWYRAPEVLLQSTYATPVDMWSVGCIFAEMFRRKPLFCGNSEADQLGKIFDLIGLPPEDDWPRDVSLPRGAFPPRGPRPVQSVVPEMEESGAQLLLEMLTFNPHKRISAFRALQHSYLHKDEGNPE
Chain of CDK4 (P24385 whole entry partner): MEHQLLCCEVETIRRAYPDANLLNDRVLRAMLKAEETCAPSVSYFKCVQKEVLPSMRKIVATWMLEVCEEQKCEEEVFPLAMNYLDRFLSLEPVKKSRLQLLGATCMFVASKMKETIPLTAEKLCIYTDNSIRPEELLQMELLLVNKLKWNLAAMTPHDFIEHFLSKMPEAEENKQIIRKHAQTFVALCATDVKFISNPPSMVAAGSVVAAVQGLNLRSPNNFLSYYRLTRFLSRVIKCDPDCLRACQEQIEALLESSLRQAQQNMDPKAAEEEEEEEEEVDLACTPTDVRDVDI
Chain of CDK4 (Q16531 2-1140 limits assumed): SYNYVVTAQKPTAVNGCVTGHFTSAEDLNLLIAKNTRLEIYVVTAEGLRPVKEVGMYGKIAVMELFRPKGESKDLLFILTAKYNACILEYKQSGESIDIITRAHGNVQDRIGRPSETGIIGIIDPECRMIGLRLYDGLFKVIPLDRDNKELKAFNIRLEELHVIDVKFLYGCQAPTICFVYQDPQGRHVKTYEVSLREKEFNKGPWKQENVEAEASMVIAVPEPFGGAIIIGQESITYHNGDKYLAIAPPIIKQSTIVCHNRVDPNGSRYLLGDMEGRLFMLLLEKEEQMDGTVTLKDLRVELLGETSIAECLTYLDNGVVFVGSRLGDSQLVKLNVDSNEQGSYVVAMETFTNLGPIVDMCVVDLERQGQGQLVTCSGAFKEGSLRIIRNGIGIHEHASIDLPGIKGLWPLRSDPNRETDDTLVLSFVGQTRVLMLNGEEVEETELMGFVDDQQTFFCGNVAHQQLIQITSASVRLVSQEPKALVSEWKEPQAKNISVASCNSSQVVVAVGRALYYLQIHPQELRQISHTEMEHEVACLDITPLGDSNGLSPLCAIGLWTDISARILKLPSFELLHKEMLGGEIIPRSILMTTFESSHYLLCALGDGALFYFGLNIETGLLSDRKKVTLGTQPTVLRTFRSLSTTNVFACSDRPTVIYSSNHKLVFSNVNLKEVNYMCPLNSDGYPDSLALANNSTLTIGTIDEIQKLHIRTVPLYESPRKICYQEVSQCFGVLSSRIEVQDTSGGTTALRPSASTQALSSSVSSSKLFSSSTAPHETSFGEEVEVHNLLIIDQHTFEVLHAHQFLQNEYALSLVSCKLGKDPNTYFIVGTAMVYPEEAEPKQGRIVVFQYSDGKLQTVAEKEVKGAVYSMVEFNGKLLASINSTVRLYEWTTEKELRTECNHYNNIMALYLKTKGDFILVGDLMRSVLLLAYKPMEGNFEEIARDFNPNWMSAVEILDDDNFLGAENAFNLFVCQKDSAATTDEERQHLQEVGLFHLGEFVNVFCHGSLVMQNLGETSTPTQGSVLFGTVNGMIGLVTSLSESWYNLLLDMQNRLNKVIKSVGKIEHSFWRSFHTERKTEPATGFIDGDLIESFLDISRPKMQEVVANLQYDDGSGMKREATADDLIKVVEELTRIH

One may read the inhibition as how much of the control response was suppressed. Turning to `[2H]C([2H])([2H])Nc1ccc(C(=O)Nc2cc(C)n(C)n2)c(NC2CCN(C(=O)CN3CCN(c4ccc(Nc5ncc6c(C)c(C(C)=O)c(=O)n(C7CCCC7)c6n5)nc4)CC3)CC2)n1` [CPD-230, 2-((1-(2-(4-(6-((6-acetyl-8-cyclopentyl-5-methyl-7-oxo-7,8-dihydropyrido[2,3-d]pyrimidin-2-yl)amino)pyridin-3-yl)piperazin-1-yl)acetyl)piperidin-4-yl)amino)-N-(1,5-dimethyl-1H-pyrazol-3-yl)-6-((methyl-d3)amino)nicotinamide], the inhibition at 0.04 µM was under 30% and the inhibition at 0.2 µM lay in the range of 30 to 50%.

The molecule `[2H]C([2H])([2H])Nc1ccc(C(=O)Nc2cc(C)on2)c(NC2CCN(C(=O)CN3CCN(c4ccc(Nc5ncc6c(C)c(C(C)=O)c(=O)n(C7CCCC7)c6n5)nc4)CC3)CC2)n1` [CPD-231, 2-((1-(2-(4-(6-((6-acetyl-8-cyclopentyl-5-methyl-7-oxo-7,8-dihydropyrido[2,3-d]pyrimidin-2-yl)amino)pyridin-3-yl)piperazin-1-yl)acetyl)piperidin-4-yl)amino)-6-((methyl-d3)amino)-N-(5-methylisoxazol-3-yl)nicotinamide] yielded an inhibition at 0.04 µM of 30 to 50% and an inhibition at 0.2 µM of 50 to 80%.

The molecule `[2H]C([2H])([2H])Nc1ccc(C(=O)Nc2cc(C)n(C)n2)c(NC2CN(C(=O)C(F)(F)CN3CCN(c4ccc(Nc5ncc6c(C)c(C(C)=O)c(=O)n(C7CCCC7)c6n5)nc4)CC3)C2)n1` [CPD-233, 2-((1-(3-(4-(6-((6-acetyl-8-cyclopentyl-5-methyl-7-oxo-7,8-dihydropyrido[2,3-d]pyrimidin-2-yl)amino)pyridin-3-yl)piperazin-1-yl)-2,2-difluoropropanoyl)azetidin-3-yl)amino)-N-(1,5-dimethyl-1H-pyrazol-3-yl)-6-((methyl-d3)amino)nicotinamide] had an inhibition at 0.04 µM of under 30% and an inhibition at 0.2 µM of 30 to 50%.

The molecule `[2H]C([2H])([2H])Nc1ccc(C(=O)Nc2cc(C)on2)c(NC2CN(C(=O)C(F)(F)CN3CCN(c4ccc(Nc5ncc6c(C)c(C(C)=O)c(=O)n(C7CCCC7)c6n5)nc4)CC3)C2)n1` [CPD-234, 2-((1-(3-(4-(6-((6-acetyl-8-cyclopentyl-5-methyl-7-oxo-7,8-dihydropyrido[2,3-d]pyrimidin-2-yl)amino)pyridin-3-yl)piperazin-1-yl)-2,2-difluoropropanoyl)azetidin-3-yl)amino)-6-((methyl-d3)amino)-N-(5-methylisoxazol-3methyl-yl)nicotinamide] came in with an inhibition at 0.04 µM of under 30% and an inhibition at 0.2 µM of under 30%.

For the molecule `CNc1ccc(C(=O)Nc2ccc(N(C)C)nn2)c(NC2CCC3(C2)CN(C(=O)CN2CCN(c4ccc(Nc5ncc6c(C)c(C(C)=O)c(=O)n(C7CCCC7)c6n5)nc4)CC2)C3)n1` (stereo not drawn) [CPD-235, 2-((2-(2-(4-(6-((6-acetyl-8-cyclopentyl-5-methyl-7-oxo-7,8-dihydropyrido[2,3-d]pyrimidin-2-yl)amino)pyridin-3-yl)piperazin-1-yl)acetyl)-2-azaspiro[3.4]octan-6-yl)amino)-N-(6-(dimethylamino)pyridazin-3-yl)-6-(methylamino)nicotinamide], the inhibition at 0.04 µM is under 30% and the inhibition at 0.2 µM lay within 50 to 80%.

The molecule `[2H]C([2H])([2H])Nc1ccc(C(=O)Nc2cn(C)c(C3CC3)n2)c(NC2CCN(C(=O)CN3CCN(c4ccc(Nc5ncc6c(C)c(C(C)=O)c(=O)n(C7CCCC7)c6n5)nc4)CC3)CC2)n1` [CPD-236, 2-((1-(2-(4-(6-((6-acetyl-8-cyclopentyl-5-methyl-7-oxo-7,8-dihydropyrido[2,3-d]pyrimidin-2-yl)amino)pyridin-3-yl)piperazin-1-yl)acetyl)piperidin-4-yl)amino)-N-(2-cyclopropyl-1-methyl-1H-imidazol-4-yl)-6-((methyl-d3)amino)nicotinamide] returned an inhibition at 0.04 µM of 30 to 50% and an inhibition at 0.2 µM of 50 to 80%.

`CNc1ccc(C(=O)Nc2cn(C(C)C)c(C)n2)c(NC2CC3(CC(NC(=O)CN4CCN(c5ccc(Nc6ncc7c(C)c(C(C)=O)c(=O)n(C8CCCC8)c7n6)nc5)CC4)C3)C2)n1` (stereo not drawn) [CPD-238, 2-((6-(2-(4-(6-((6-acetyl-8-cyclopentyl-5-methyl-7-oxo-7,8-dihydropyrido[2,3-d]pyrimidin-2-yl)amino)pyridin-3-yl)piperazin-1-yl)acetamido)spiro[3.3]heptan-2-yl)amino)-N-(1-isopropyl-2-methyl-1H-imidazol-4-yl)-6-(methylamino)nicotinamide] showed an inhibition at 0.04 µM of under 30% and an inhibition at 0.2 µM of under 30%.

On to `[2H]C([2H])([2H])Nc1ccc(C(=O)Nc2ccc(F)c(C3CC3)n2)c(NC2CC3(CC(NC(=O)CN4CCN(c5ccc(Nc6ncc7c(C)c(C(C)=O)c(=O)n(C8CCCC8)c7n6)nc5)CC4)C3)C2)n1` (stereo not drawn) [CPD-239, 2-((6-(2-(4-(6-((6-acetyl-8-cyclopentyl-5-methyl-7-oxo-7,8-dihydropyrido[2,3-d]pyrimidin-2-yl)amino)pyridin-3-yl)piperazin-1-yl)acetamido)spiro[3.3]heptan-2-yl)amino)-N-(6-cyclopropyl-5-fluoropyridin-2-yl)-6-((methyl-da)amino)nicotinamide], for which the inhibition at 0.04 µM lay in the range of 30 to 50% and the inhibition at 0.2 µM was in the range of 50 to 80%.

For `CNc1ccc(C(=O)Nc2cccc(C3CC3)n2)c(NC2CC(NC(=O)CN3CCN(c4ccc(Nc5ncc6c(C)c(C(C)=O)c(=O)n(C7CCCC7)c6n5)nc4)CC3)C2)n1` (stereo not drawn) [CPD-240, 2-((3-(2-(4-(6-((6-acetyl-8-cyclopentyl-5-methyl-7-oxo-7,8-dihydropyrido[2,3-d]pyrimidin-2-yl)amino)pyridin-3-yl)piperazin-1-yl)acetamido)cyclobutyl)amino)-N-(6-cyclopropylpyridin-2-yl)-6-(methylamino)nicotinamide], the inhibition at 0.04 µM lay within 30 to 50% and the inhibition at 0.2 µM is 30 to 50%.

Molecule `CNc1ccc(C(=O)Nc2ccc(N(C)C)nn2)c(NC2CC(NC(=O)C(C)(C)N3CCN(c4ccc(Nc5ncc6c(C)c(C(C)=O)c(=O)n(C7CCCC7)c6n5)nc4)CC3)C2)n1` (stereo not drawn) [CPD-243, 2-((3-(2-(4-(6-((6-acetyl-8-cyclopentyl-5-methyl-7-oxo-7,8-dihydropyrido[2,3-d]pyrimidin-2-yl)amino)pyridin-3-yl)piperazin-1-yl)-2-methylpropanamido)cyclobutyl)amino)-N-(6-(dimethylamino)pyridazin-3-yl)-6-(methylamino)nicotinamide] displayed an inhibition at 0.04 µM of 50 to 80% and an inhibition at 0.2 µM of 50 to 80%.

Molecule `[2H]C([2H])([2H])Nc1ccc(C(=O)Nc2ccc(N(C)C)nn2)c(NC2CC(NC(=O)CN3CCN(c4ccc(Nc5ncc6c(C)c(C(C)=O)c(=O)n(C7CCCC7)c6n5)nc4)CC3)C2)n1` (stereo not drawn) [CPD-245, 2-((3-(2-(4-(6-((6-acetyl-8-cyclopentyl-5-methyl-7-oxo-7,8-dihydropyrido[2,3-d]pyrimidin-2-yl)amino)pyridin-3-yl)piperazin-1-yl)acetamido)cyclobutyl)amino)-N-(6-(dimethylamino)pyridazin-3-yl)-6-((methyl-d3)amino)nicotinamide] registered an inhibition at 0.04 µM of 30 to 50% and an inhibition at 0.2 µM of 50 to 80%.

With `CNc1ccc(C(=O)Nc2ncc(C)o2)c(NC2CC3(CC(NC(=O)CN4CCN(c5ccc(Nc6ncc7c(C)c(C(C)=O)c(=O)n(C8CCCC8)c7n6)nc5)CC4)C3)C2)n1` (stereo not drawn) [CPD-246, 2-((6-(2-(4-(6-((6-acetyl-8-cyclopentyl-5-methyl-7-oxo-7,8-dihydropyrido[2,3-d]pyrimidin-2-yl)amino)pyridin-3-yl)piperazin-1-yl)acetamido)spiro[3.3]heptan-2-yl)amino)-6-(methylamino)-N-(5-methyloxazol-2-yl)nicotinamide], the inhibition at 0.04 µM lay within 50 to 80% and the inhibition at 0.2 µM lay in the range of 50 to 80%.

Regarding `CNc1ccc(C(=O)Nc2nc(C)c(C)o2)c(NC2CC3(CC(NC(=O)CN4CCN(c5ccc(Nc6ncc7c(C)c(C(C)=O)c(=O)n(C8CCCC8)c7n6)nc5)CC4)C3)C2)n1` (stereo not drawn) [CPD-247, 2-((6-(2-(4-(6-((6-acetyl-8-cyclopentyl-5-methyl-7-oxo-7,8-dihydropyrido[2,3-d]pyrimidin-2-yl)amino)pyridin-3-yl)piperazin-1-yl)acetamido)spiro[3.3]heptan-2-yl)amino)-N-(4,5-dimethyloxazol-2-yl)-6-(methylamino)nicotinamide], the inhibition at 0.04 µM is 50 to 80% and the inhibition at 0.2 µM lay in the range of 50 to 80%.

Molecule `[2H]C([2H])([2H])Nc1ccc(C(=O)Nc2ccc(N(C)C)nn2)c(NC2CN(C(=O)C(F)(F)CN3CCN(c4ccc(Nc5ncc6c(C)c(C(C)=O)c(=O)n(C7CCCC7)c6n5)nc4)CC3)C2)n1` [CPD-248, 2-((1-(3-(4-(6-((6-acetyl-8-cyclopentyl-5-methyl-7-oxo-7,8-dihydropyrido[2,3-d]pyrimidin-2-yl)amino)pyridin-3-yl)piperazin-1-yl)-2,2-difluoropropanoyl)azetidin-3-yl)amino)-N-(6-(dimethylamino)pyridazin-3-yl)-6-((methyl-d3)amino)nicotinamide] gave an inhibition at 0.04 µM of under 30% and an inhibition at 0.2 µM of under 30%.

On to `[2H]C([2H])([2H])Nc1ccc(C(=O)Nc2ccc(N(C)C)nn2)c(NC2CC3(C2)CN(C(=O)C(F)(F)CN2CCN(c4ccc(Nc5ncc6c(C)c(C(C)=O)c(=O)n(C7CCCC7)c6n5)nc4)CC2)C3)n1` [CPD-249, 2-((2-(3-(4-(6-((6-acetyl-8-cyclopentyl-5-methyl-7-oxo-7,8-dihydropyrido[2,3-d]pyrimidin-2-yl)amino)pyridin-3-yl)piperazin-1-yl)-2,2-difluoropropanoyl)-2-azaspiro[3.3]heptan-6-yl)amino)-N-(6-(dimethylamino)pyridazin-3-yl)-6-((methyl-d3)amino)nicotinamide], for which the inhibition at 0.04 µM is 50 to 80% and the inhibition at 0.2 µM was 50 to 80%.
